# Assay results reported in patent US5138069A (E. I. Du Pont de Nemours and Company, priority 1988, dated 1992).
# System: Plasma renin activity (PRA)
# Experiment: Plasma renin activity in conscious dogs
# Format: in vivo
# Conditions: three dogs, furosemide 10 mg/kg im at 18 and 2 hours before; PRA before 1.5±0.5
# Procedure: The hypotensive effects of 2-butyl-4-chloro-1-[2'-(1H-tetrazol-5-yl)biphenyl-4-yl)methyl]-5-hydroxymethylimidazole sodium salt were compared before and after furosemide administration to conscious dogs. […] Plasma renin activity (PRA) in these animals was 1.5±0.5 ng AI/ml/hr. Four days later, furosemide was given to three of these dogs at 10 mg/kg im at 18 and 2 hours before the experiment and increased PRA to 19.9±7.2 ng AI/ml/hr. […] Thus a combined therapy of these two classes of drugs will be likely to increase the response rate to therapy among hypertensive patients.
structure (smiles),measurement,value
NS(=O)(=O)c1cc(C(=O)O)c(NCc2ccco2)cc1Cl [furosemide],Plasma renin activity (PRA) after furosemide,19.9±7.2 ng AI/ml/hr
